According to ChEMBL document CHEMBL5316318, “Structural Modification and Pharmacological Evaluation of Substituted Quinoline-5,8-diones as Potent NSD2 Inhibitors” (J Med Chem, 2023):
Values belong to the compound of their own block, whether it stands above or below them.

Key:
[1] = target: T1, Histone-lysine N-methyltransferase NSD2 (Homo sapiens, UniProt O96028); experiment: Inhibition of recombinant human NSD2 (941 to 1240 residues) using SAM as substrate incubated for 3 hrs by AlphaLISA assay
T1 sequence (O96028 whole entry): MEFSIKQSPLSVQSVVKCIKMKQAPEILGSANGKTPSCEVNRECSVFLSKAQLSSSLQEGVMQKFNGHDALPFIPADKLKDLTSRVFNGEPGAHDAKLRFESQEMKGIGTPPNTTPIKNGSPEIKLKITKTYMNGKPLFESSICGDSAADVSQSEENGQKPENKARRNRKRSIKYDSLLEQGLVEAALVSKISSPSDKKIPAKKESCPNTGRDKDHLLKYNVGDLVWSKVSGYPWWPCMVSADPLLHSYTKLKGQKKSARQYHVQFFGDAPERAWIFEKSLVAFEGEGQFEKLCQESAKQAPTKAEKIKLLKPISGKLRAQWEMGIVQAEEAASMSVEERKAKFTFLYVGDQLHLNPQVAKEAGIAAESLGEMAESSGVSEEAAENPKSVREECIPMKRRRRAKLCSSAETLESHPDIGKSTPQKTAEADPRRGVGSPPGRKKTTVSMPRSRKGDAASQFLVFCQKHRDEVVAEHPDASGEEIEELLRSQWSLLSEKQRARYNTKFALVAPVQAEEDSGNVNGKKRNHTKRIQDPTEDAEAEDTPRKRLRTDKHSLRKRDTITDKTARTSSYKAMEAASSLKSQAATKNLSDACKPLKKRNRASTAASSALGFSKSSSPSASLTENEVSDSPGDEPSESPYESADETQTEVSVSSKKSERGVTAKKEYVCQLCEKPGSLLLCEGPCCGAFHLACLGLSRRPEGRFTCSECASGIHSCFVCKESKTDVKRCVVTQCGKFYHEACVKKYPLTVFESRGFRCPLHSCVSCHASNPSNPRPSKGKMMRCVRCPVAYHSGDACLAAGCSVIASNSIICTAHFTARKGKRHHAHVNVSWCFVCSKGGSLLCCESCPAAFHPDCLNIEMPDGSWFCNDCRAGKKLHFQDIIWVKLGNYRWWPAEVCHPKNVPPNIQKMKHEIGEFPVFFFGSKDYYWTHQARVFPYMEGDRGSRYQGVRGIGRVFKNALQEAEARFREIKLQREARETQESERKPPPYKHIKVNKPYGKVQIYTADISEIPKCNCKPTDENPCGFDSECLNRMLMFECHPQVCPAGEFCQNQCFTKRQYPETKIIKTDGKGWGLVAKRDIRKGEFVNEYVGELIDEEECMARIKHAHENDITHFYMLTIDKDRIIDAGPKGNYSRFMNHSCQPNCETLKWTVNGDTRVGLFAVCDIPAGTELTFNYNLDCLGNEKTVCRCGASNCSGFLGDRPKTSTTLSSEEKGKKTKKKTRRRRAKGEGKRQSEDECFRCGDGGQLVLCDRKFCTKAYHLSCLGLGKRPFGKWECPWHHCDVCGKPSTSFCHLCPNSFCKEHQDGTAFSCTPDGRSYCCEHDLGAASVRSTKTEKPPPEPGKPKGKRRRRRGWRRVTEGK

[2] = tested on: KMS-11; experiment: Antiproliferative activity against human KMS-11 cells assessed as inhibition of cell growth incubated for 6 days by CCK-8 assay; format: functional, cell-based; conditions: KMS-11, 144 h
[3] = Apparent permeability coefficient, Papp in MDCK cells; format: ADME, cell-based, Canis lupus familiaris; conditions: dog
[4] = Tmax in ICR mouse at 3 mg/kg, po measured for 24 hrs by LC-MS/MS analysis; format: ADME, organism-based; conditions: in vivo
[5] = Cmax in ICR mouse at 3 mg/kg, po measured for 24 hrs by LC-MS/MS analysis; format: ADME, organism-based; design: dose 3 mg/kg, time 24 hrs, route po; conditions: in vivo
[6] = AUClast in ICR mouse at 3 mg/kg, po measured for 24 hrs by LC-MS/MS analysis; format: ADME, organism-based; design: dose 3 mg/kg, time 24 hrs, route po; conditions: in vivo
[7] = AUClast in ICR mouse at 1 mg/kg, iv measured for 24 hrs by LC-MS/MS analysis; format: ADME, organism-based; design: dose 1 mg/kg, time 24 hrs, route iv; conditions: in vivo
[8] = Observed clearance in ICR mouse at 1 mg/kg, iv measured for 24 hrs by LC-MS/MS analysis; format: ADME, organism-based; conditions: in vivo
[9] = Half life in ICR mouse at 3 mg/kg, po measured for 24 hrs by LC-MS/MS analysis; format: ADME, organism-based; conditions: in vivo
[10] = Half life in ICR mouse at 1 mg/kg, iv measured for 24 hrs by LC-MS/MS analysis; format: ADME, organism-based; conditions: in vivo
[11] = Oral bioavailability in ICR mouse at 3 mg/kg measured for 24 hrs by LC-MS/MS analysis; format: ADME, organism-based; conditions: in vivo
[12] = target: T1, Histone-lysine N-methyltransferase NSD2; experiment: Inhibition of human NSD2 (934 to 1241 residues) expressed in Escherichia coli BL21 (DE3) using [3H]-SAM as substrate incubated for 1 hr by TopCount radioactivity counter
[13] = target: Histone-lysine N-methyltransferase, H3 lysine-36 specific (Homo sapiens, UniProt Q96L73); experiment: Inhibition of NSD1 (unknown origin)
Chain of Histone-lysine N-methyltransferase, H3 lysine-36 specific (Q96L73 whole entry): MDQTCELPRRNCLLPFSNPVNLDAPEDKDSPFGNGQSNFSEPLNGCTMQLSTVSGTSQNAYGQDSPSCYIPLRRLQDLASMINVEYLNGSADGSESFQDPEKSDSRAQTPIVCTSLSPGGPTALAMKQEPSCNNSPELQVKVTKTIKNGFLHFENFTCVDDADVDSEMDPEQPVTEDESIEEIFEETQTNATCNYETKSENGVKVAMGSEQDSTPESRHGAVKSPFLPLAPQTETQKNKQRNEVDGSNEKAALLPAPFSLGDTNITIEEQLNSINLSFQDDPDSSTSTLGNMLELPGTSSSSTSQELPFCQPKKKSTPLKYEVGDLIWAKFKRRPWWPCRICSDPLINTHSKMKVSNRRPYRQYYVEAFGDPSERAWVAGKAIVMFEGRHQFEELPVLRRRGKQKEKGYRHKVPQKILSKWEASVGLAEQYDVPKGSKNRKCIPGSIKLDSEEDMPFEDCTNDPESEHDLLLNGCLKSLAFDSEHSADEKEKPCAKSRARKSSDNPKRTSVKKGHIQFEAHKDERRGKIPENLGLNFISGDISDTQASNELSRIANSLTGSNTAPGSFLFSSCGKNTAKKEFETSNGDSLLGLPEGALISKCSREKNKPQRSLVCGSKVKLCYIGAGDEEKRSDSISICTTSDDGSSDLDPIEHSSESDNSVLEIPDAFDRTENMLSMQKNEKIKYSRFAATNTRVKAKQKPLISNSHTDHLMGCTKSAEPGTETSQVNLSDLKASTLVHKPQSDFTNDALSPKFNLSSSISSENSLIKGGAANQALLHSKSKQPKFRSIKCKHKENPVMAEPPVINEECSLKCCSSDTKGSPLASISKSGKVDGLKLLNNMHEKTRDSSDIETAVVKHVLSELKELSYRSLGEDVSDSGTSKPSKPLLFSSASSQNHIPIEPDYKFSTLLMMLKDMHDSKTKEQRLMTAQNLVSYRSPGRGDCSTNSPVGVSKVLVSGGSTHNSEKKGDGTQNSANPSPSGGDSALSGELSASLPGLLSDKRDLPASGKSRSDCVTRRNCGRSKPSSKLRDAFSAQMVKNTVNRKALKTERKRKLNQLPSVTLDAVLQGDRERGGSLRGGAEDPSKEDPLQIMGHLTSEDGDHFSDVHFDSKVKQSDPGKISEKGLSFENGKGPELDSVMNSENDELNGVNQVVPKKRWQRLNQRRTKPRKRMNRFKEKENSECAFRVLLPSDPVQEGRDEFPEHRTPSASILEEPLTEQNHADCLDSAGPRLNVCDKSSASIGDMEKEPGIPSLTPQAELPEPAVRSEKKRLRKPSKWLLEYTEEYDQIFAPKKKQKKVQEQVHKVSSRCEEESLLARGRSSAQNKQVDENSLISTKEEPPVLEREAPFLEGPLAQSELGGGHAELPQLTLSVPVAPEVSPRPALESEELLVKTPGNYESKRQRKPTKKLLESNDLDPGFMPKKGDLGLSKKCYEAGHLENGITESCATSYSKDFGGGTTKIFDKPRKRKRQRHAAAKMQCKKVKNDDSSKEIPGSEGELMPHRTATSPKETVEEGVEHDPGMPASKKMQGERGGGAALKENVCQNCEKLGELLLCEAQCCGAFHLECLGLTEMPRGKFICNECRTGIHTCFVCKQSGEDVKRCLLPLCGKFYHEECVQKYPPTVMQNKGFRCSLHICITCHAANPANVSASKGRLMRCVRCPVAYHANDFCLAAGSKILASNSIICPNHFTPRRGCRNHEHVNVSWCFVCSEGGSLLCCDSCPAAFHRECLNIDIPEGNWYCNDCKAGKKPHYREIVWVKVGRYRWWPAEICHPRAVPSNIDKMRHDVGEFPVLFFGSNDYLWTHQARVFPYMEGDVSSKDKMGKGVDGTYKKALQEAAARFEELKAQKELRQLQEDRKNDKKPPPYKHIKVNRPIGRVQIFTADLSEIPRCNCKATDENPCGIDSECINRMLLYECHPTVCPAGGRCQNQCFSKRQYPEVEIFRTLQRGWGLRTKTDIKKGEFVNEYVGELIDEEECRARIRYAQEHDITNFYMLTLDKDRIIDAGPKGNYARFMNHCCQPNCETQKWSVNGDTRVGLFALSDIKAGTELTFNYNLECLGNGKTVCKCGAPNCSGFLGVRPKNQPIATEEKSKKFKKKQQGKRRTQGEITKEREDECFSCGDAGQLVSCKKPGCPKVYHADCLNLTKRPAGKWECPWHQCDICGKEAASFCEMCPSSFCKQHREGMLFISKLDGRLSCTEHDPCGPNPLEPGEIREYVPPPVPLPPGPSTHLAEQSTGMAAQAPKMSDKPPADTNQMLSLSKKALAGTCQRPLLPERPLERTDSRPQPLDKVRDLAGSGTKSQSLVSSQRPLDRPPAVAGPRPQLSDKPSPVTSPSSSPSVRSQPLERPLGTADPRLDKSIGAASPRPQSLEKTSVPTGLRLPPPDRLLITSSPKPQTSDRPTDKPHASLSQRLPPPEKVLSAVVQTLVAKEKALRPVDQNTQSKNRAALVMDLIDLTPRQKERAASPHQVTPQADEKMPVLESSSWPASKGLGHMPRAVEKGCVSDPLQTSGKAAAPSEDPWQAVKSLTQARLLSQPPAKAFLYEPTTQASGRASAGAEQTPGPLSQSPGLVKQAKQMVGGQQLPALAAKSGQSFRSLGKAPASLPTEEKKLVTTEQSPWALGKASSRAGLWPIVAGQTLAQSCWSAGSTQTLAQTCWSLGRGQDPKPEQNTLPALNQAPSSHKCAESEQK

[14] = target: Histone-lysine N-methyltransferase NSD3 (Homo sapiens, UniProt Q9BZ95); experiment: Inhibition of NSD3 (unknown origin)
Chain of Histone-lysine N-methyltransferase NSD3 (Q9BZ95 whole entry, the tested form may be a part): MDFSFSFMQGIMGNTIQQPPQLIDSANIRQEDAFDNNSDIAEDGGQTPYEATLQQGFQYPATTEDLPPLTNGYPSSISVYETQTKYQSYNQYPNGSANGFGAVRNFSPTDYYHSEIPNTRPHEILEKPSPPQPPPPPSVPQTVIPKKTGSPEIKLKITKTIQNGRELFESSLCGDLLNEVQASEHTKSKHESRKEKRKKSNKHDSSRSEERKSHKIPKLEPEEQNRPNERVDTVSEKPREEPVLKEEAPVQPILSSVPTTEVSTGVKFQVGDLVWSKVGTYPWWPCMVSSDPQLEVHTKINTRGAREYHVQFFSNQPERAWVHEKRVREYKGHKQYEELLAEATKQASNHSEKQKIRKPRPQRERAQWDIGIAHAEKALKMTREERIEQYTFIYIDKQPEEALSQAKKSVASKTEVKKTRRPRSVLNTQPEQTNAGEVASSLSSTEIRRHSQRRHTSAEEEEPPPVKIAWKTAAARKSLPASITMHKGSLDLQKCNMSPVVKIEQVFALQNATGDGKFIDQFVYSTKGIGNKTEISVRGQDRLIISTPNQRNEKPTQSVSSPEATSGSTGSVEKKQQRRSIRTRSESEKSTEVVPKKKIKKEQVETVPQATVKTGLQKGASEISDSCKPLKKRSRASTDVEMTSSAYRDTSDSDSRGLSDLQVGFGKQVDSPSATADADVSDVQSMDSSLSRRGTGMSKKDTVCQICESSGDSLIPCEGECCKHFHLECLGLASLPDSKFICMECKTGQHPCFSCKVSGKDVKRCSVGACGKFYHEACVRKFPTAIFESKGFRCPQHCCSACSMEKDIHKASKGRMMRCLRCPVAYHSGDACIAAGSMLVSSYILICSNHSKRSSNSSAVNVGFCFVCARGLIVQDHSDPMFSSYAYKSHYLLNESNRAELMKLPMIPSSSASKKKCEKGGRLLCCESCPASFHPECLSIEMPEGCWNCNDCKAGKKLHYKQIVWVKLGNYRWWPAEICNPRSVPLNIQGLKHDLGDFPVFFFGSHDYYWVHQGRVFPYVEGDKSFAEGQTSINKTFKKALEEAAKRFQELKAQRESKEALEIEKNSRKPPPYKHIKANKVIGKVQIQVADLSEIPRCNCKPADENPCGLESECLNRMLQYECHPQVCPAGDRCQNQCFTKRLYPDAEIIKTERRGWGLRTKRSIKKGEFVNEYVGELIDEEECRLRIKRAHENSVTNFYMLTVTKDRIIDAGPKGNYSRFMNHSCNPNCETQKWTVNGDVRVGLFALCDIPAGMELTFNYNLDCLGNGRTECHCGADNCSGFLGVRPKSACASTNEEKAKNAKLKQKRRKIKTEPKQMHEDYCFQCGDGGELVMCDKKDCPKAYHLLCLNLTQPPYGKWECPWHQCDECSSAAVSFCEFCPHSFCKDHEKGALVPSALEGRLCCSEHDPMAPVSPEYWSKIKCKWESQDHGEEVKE

[15] = target: T1, Histone-lysine N-methyltransferase NSD2; experiment: Inhibition of N-terminal polyhistidine tagged human recombinant NSD2 SET domain (934 to 1241 residues) expressed in Escherichia coli using SAM as substrate preincubated for 30 mins followed by substrate addition and measured after 15 mins by MTase-Glo assay
[16] = target: T1, Histone-lysine N-methyltransferase NSD2; experiment: Competitive inhibition of NSD2 (unknown origin) using SAM as substrate

IC50 [1]: 330 nM | Papp [3]: 49.4 ×10⁻⁶ cm/s | Tmax [4]: 25.2 min | Cmax [5]: 707 ng/mL | AUC(0-t) at 24 h [6]: 758 ng·h/mL | AUC(0-t) at 24 h [7]: 476 ng·h/mL | clearance [8]: 33.4 mL/min/kg | half-life [9]: 307 min | half-life [10]: 115 min | bioavailability [11]: 53.1%
Compound: CC(F)(F)C(=O)NC12CC(NC3=C(Cl)C(=O)c4ncccc4C3=O)(C1)C2
IC50 [2]: 350 nM

IC50 [1]: 240 nM | Papp [3]: 17.8 ×10⁻⁶ cm/s
Compound: C[C@@](O)(C(=O)N1CCC(O)(CCNC2=C(Cl)C(=O)c3cccnc3C2=O)CC1)C(F)(F)F
IC50 [2]: 8100 nM

IC50 [1]: 470 nM
Compound: CC(F)(F)C(=O)NC1CN(C2=C(Cl)C(=O)c3cccnc3C2=O)C1

IC50 [1]: 360 nM
Compound: CC(F)(F)C(=O)NC1CN(C2=C(Cl)C(=O)c3ncccc3C2=O)C1

IC50 [1]: 1350 nM
Compound: CC(F)(F)C(=O)NCCC1CCN(C2=C(Cl)C(=O)c3ncccc3C2=O)CC1

IC50 [1]: 3050 nM
Compound: CC(F)(F)C(=O)N1CCC2(CC1)CN(C1=C(Cl)C(=O)c3ncccc3C1=O)C2

IC50 [1]: 590 nM
Compound: CC#CC(=O)NC1CN(C2=C(Cl)C(=O)c3ncccc3C2=O)C1

IC50 [1]: 1280 nM
Compound: O=C1C(NCCC2(O)CCN(C(=O)C3CC3(F)F)CC2)=C(Cl)C(=O)c2ncccc21 (configuration not stated)

Continued, compound first:

Compound: CC(C)(O)[C@H](F)CNC1=C(Cl)C(=O)c2cccnc2C1=O
IC50 [1]: 300 nM | IC50 [2]: 1680 nM | Papp [3]: 30.8 ×10⁻⁶ cm/s

Compound: Nc1ncnc2c1ncn2[C@@H]1O[C@H](C[C@@H](N)CC[C@H](N)C(=O)O)[C@@H](O)[C@H]1O [SINEFUNGIN]
IC50 [12]: 79000 nM

Compound: CC#CC(=O)N1CCC2(CC1)CN(C1=C(Cl)C(=O)c3ncccc3C1=O)C2
IC50 [1]: 2480 nM

Compound: O=C1C(NCCc2c[nH]c3ccccc23)=C(Cl)C(=O)c2ncccc21
IC50 [1]: 2290 nM

Compound: CCN(c1cc(-c2ccc(CN3CCOCC3)cc2)cc(C(=O)NCc2c(C)cc(C)[nH]c2=O)c1C)C1CCOCC1 [TAZEMETOSTAT]
IC50 [2]: > 20000 nM

Compound: O=C1C(Cl)=C(NCCc2c[nH]c3ccccc23)C(=O)c2ncccc21
IC50 [1]: 450 nM

Compound: CC(C)(O)[C@H](F)CNC1=C(Cl)C(=O)c2ccc(N3C[C@@H](O)[C@H](O)C3)nc2C1=O
IC50 [1]: 1220 nM

Compound: CC(C)(O)[C@H](F)CNC1=C(Cl)C(=O)c2ccc(N3CCC(F)(F)C3)nc2C1=O
IC50 [1]: 930 nM

Compound: O=C1C(Cl)=C(NCCC2(O)CCN(C(=O)C3CC3(F)F)CC2)C(=O)c2ncccc21 (configuration not stated)
IC50 [1]: 200 nM | IC50 [2]: 3940 nM | Papp [3]: 21.5 ×10⁻⁶ cm/s

Compound: O=C1C(Cl)=C(NCCN2CCOCC2)C(=O)c2ncccc21
IC50 [1]: 230 nM | IC50 [2]: 1430 nM | Papp [3]: 31.2 ×10⁻⁶ cm/s | Tmax [4]: 19.8 min | Cmax [5]: 21.1 ng/mL | AUC(0-t) at 24 h [6]: 14.5 ng·h/mL | half-life [9]: 34.2 min | IC50 [13]: 150 nM | IC50 [14]: 340 nM | IC50 [15]: 170 nM

Compound: CC#CC(=O)N1CCC2(CC1)CN(C1=C(Cl)C(=O)c3cccnc3C1=O)C2
IC50 [1]: 760 nM

Compound: CC(C)(O)[C@H](F)CNC1=C(Cl)C(=O)c2ccc(N3CCCC3)nc2C1=O
IC50 [1]: 360 nM

Compound: NNc1nc2ccccc2nc1S
IC50 [16]: < 3000 nM

Compound: CC#CC(=O)NC1CN(C2=C(Cl)C(=O)c3cccnc3C2=O)C1
IC50 [1]: 310 nM
